The values that follow come from patent publication US5387602A, “1.5-diphenyl-3-(N-hydroxycarbamoyloxyalkyl)pyrazoles” (Ortho Pharmaceutical Corporation, priority 1993, dated 1995).

Test [1] concerns the target T1, RBL-1 Cell 5-Lipoxygenase (Rattus norvegicus, UniProt P12527).
T1 construct: the supernatant was saved as the source of enzymes; endogenous in cells; host or cells: RBL-1 (rat basophilic leukemia cells), 10,000×g supernatant of homogenate
T1 sequence (P12527 1-673): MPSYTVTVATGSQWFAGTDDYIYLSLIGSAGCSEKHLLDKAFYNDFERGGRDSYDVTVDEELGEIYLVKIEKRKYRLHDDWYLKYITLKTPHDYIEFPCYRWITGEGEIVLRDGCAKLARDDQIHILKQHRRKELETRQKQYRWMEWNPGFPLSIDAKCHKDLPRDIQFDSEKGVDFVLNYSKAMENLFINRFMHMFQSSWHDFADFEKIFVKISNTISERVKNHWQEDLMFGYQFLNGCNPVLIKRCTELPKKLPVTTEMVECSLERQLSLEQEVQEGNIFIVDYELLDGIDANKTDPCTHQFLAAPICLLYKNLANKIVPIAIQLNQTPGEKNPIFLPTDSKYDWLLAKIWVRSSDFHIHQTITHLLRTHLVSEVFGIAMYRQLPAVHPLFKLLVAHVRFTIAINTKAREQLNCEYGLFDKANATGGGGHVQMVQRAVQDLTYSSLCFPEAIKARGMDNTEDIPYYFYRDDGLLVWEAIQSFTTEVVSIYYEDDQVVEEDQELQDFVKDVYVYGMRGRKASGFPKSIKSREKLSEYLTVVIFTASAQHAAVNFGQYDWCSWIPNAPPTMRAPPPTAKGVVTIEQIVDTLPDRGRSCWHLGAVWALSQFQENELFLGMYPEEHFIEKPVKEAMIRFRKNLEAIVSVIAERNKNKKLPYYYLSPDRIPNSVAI
As to the kind of experiment: Procedure II: 5-lipoxygenase inhibition in disrupted RBL-1 cells (supernatant as enzyme source). The test is classed as biochemical. Conditions: for IC50: read-out: IC50 5-LO (Procedure II). On the procedure:
RBL-1 Cell 5-Lipoxygenase and Cyclooxygenase
Rat basophilic leukemia cells (RBL-1; 5×10^7 viable cells/mL) were disrupted by homogenization on ice (four 20 sec bursts) with a Brinkman polytron. Complete cell breakage was verified microscopically. The homogenate was then centrifuged at 10,000×g for 48 minutes at 4° C. The pellet was discarded and the supernatant was saved as the source of enzymes. The supernatant was pre-incubated for five minutes at 37° C. in the presence of 2 mM of CaCl2 and compound or vehicle (1% DMSO). The conversion of AA into 5-LO products was initiated by adding 10 μL (50 μCi) of 1-^14 C-AA to each tube and incubated at 37° C. for 20 minutes. The reaction was stopped by adjusting the pH of each sample to 3 to 3.5 with 2M formic acid. Samples were extracted with three volumes of chloroform to isolate the products of 5-LO formed during the reaction. Fractions were dried under nitrogen, then resuspended in 40 μL of chloroform and spotted onto silica gel HL plates. The plates were developed in A-9 solvent. The dried plates were analyzed using a Bioscan Imaging TLC scanner to determine the percentage of radiolabelled AA converted to 5-HETE in each sample.
(§1) In the following tables, the superscripts indicate the number of experiments and, unless otherwise stated, the dose at which % inhibition is reported is 3 MPK.

A further test deals with T2, CO in intact RBL-1 cells (Rattus norvegicus, UniProt Q63921).
T2 construct: 5-LO and CO in intact RBL-1 cells; endogenous in cells; host or cells: RBL-1 (rat basophilic leukemia cells), intact
T2 sequence (Q63921 27-602): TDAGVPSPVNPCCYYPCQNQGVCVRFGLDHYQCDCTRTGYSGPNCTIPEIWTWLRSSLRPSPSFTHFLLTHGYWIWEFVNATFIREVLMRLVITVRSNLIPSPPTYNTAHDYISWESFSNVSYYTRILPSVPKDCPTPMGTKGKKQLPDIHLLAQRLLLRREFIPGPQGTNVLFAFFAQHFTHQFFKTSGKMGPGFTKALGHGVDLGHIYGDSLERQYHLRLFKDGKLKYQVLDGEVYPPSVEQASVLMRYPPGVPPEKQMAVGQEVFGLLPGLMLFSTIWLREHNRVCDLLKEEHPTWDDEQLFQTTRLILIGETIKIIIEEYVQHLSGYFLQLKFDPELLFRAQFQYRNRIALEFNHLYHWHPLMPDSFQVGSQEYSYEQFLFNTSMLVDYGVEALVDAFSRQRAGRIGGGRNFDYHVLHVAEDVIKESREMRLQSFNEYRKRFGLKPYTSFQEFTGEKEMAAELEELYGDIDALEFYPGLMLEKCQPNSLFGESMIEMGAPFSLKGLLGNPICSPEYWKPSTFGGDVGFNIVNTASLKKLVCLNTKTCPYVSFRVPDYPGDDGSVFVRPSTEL
As to the kind of experiment: Procedure III: inhibition of CO in intact RBL-1 cells. It counts as cell-based. As to the method: (§2) The ability to inhibit 5-LO and CO in intact RBL-1 cells was also evaluated. RBL-1 cells were maintained in culture in minimal essential medium (Bio*Whittaker, Walkersville, Md.), containing 12.5% fetal calf serum, 10 mg/mL streptomycin, 10 I.U./mL penicillin G, […] gentamycin and 2 mM L-glutamine (Bio*Whittaker, Walkersville, Md.). Cells were collected by centrifugation, washed once in HBSS, and resuspended at a concentration of 1×10^5 cells/mL. Cells were incubated in the presence of vehicle or drug then centrifuged at 800×g for 10 minutes at 4° C. The supernatant was removed by aspiration and the cells were resuspended in 0.5 mL of HBSS. The reaction was started by the addition of 20 μg/mL of calcium ionophore A-23187 (mixed calcium and magnesium salts, Calbiochem, La Jolla, Calif.) and allowed to proceed for 15 minutes, then stopped by plunging the tubes into a slush ice bath. The conversion of AA to 5-LO products was initiated by the addition of 10 μL (50 uCi) of 1-^14 C-AA. Products were isolated by acidification and extraction, followed by thin layer chromatography analysis as described above. Radioactive areas corresponding to authentic 5-LO and CO products were quantitated by the Bioscan 2000 Imaging System.
as §1

The target of test [2] is T3, 5-LO in intact RBL-1 cells (Rattus norvegicus, UniProt P12527).
T3 construct: 5-LO and CO in intact RBL-1 cells; endogenous in cells; host or cells: RBL-1 (rat basophilic leukemia cells), intact
T3 sequence (P12527 1-673): T1 sequence (P12527 1-673)
Nature of the test: Procedure III: inhibition of 5-LO in intact RBL-1 cells. The test is classed as cell-based. As to the method:
as §2, §1

One may read the IC50 as the concentration needed to halve the response being measured. On to `COc1ccc(-n2nc(CCOC(=O)N(C)O)cc2-c2ccc(C)cc2)cc1` [2-G], for which the “% INHIBITION 5-LO (Procedure II)” value in test [1] is 82%. The results for the IC50 (in test [1]; on CO in intact RBL-1 cells; in test [2]) were 640 nM, 80 nM and 920 nM, respectively.
As to `COc1ccc(-n2nc(CCOC(=O)N(O)C(C)C)cc2-c2ccc(C)cc2)cc1` [2-H], the “% INHIBITION 5-LO (Procedure II)” value in test [1] is 83%. For the same molecule, the IC50 in test [1] stood at 60 nM; on CO in intact RBL-1 cells, 40 nM; in test [2], 1480 nM.
Take `COc1ccc(-n2nc(CCOC(=O)N(C)O)c(Cl)c2-c2ccc(C)cc2)cc1` [2-I]: in test [1], the “% INHIBITION 5-LO (Procedure II)” value was determined as 78%. Moreover, the IC50 turned out to be 100 nM in test [1], 630 nM against CO in intact RBL-1 cells and 1080 nM in test [2].
On the same counts, the results for `COc1ccc(-n2nc(CCOC(=O)N(O)C(C)C)c(Cl)c2-c2ccc(C)cc2)cc1` [2-J] are 74%, 30 nM, 1100 nM and 3100 nM.
Consider `COc1ccc(-n2nc(CCOC(=O)NO)c(Br)c2-c2ccc(C)cc2)cc1` [2-K], for which, in test [1], the “% INHIBITION 5-LO (Procedure II)” value was found to be 59%. For the same molecule, the IC50 in test [1] worked out at 680 nM; against CO in intact RBL-1 cells, 3200 nM; in test [2], 18700 nM.
For `COc1ccc(-n2nc(CCOC(=O)N(C)O)c(Br)c2-c2ccc(C)cc2)cc1` [2-L], the “% INHIBITION 5-LO (Procedure II)” value in test [1] was determined as 75%. Moreover, the IC50 in test [1] was determined as 90 nM; against CO in intact RBL-1 cells it was 1800 nM; in test [2], 1200 nM.
In the case of `COc1ccc(-n2nc(CCCOC(=O)NO)cc2-c2ccc(Cl)cc2)cc1` [3-A], the “% INHIBITION 5-LO (Procedure II)” value in test [1] was 83%. The IC50 in test [1] stood at 3000 nM; at CO in intact RBL-1 cells, 4600 nM; in test [2], 30000 nM.
`COc1ccc(-n2nc(CCCOC(=O)N(C)O)cc2-c2ccc(Cl)cc2)cc1` [3-B]: in test [1], the “% INHIBITION 5-LO (Procedure II)” value was 96%. Also, the IC50 came to 120 nM in test [1], 420 nM at CO in intact RBL-1 cells and 3210 nM in test [2].
For the molecule `COc1ccc(-n2nc(CCCOC(=O)N(O)C(C)C)cc2-c2ccc(Cl)cc2)cc1` [3-C], in test [1], the “% INHIBITION 5-LO (Procedure II)” value was determined as 80%. The IC50 in test [1] worked out at 30 nM; against CO in intact RBL-1 cells, 1230 nM; in test [2], 1970 nM.
On the same counts, the results for `COc1ccc(-n2nc(CCCOC(=O)N(C)O)c(Cl)c2-c2ccc(Cl)cc2)cc1` [3-D] are 85%, 100 nM, 2270 nM and 820 nM.
As for `COc1ccc(-n2nc(CCCOC(=O)N(O)C(C)C)c(Cl)c2-c2ccc(Cl)cc2)cc1` [3-E], in test [1], the “% INHIBITION 5-LO (Procedure II)” value was 86%. Moreover, the IC50 in test [1] stood at 70 nM; at CO in intact RBL-1 cells it was 12200 nM; in test [2] it was 2800 nM.
With `COc1ccc(-n2nc(CCCOC(=O)N(C)O)c(Br)c2-c2ccc(Cl)cc2)cc1` [3-F], the “% INHIBITION 5-LO (Procedure II)” value in test [1] is reported as 88%. Also, the IC50 came to 60 nM in test [1], 4920 nM against CO in intact RBL-1 cells and 2350 nM in test [2].
Take `COc1ccc(-n2nc(CCCOC(=O)N(O)C(C)C)c(Br)c2-c2ccc(Cl)cc2)cc1` [3-G]: the “% INHIBITION 5-LO (Procedure II)” value in test [1] is 80%. Moreover, the IC50 was 30 nM in test [1], 7000 nM against CO in intact RBL-1 cells and 1500 nM in test [2].
